Assay results published in ChEMBL document CHEMBL6182856, “Novel one-/two-photon excited carbazole/quinolinium photosensitizers manifest nanomolar and hypoxia-resistant tumor photodynamic therapy by accelerating apoptosis, ferroptosis, and autophagy” (Eur J Med Chem, 2025).
Active and inactive are the calls of the source. No cut-off for these calls is given here.

Key:
[1] = Phototoxicity against human A549 cells assessed as inhibition of cell growth incubated for 24 hrs measured under hypoxia conditions and after one-photon excitation upon irradiation with light at 520 nm, 200 mW/cm2 for 10 mins by MTT assay; type: functional, cell-based; conditions: A549, light or radiation study
A549 [2] = test: Induction of apoptosis in human A549 cells assessed as increase in cleaved caspase-3 expression measured upon light irradiation by western blot analysis relative to control; type: functional
A549 [3] = test: In vivo photodynamic therapy based antitumor activity against human A549 cells xenografted in mouse assessed as tumor growth inhibition administered intratumorally followed by exposure to light on day 0 and 7 and measured on day 15; type: functional; conditions: route it(Intratumoral); time 15 day
A549 [4] = test: Induction of apoptosis in human A549 cells assessed as necrotic cells measured under dark conditions by AnnexinV-FITC/PI staining based flow cytometric analysis (reference value: 0.031%); type: functional
A549 [5] = test: Induction of apoptosis in human A549 cells assessed as necrotic cells measured upon light irradiation by AnnexinV-FITC/PI staining based flow cytometric analysis (reference value: 1.04%); type: functional
[6] = Toxicity against mouse xenografted with human A549 cells assessed as changes in hematological indicators administered intratumorally on day 0 and 7 and measured on day 15; conditions: in vivo, other, 360 h, route it(Intratumoral), time 15 day
HT-29 = test: Cytotoxicity against human HT-29 cells assessed as inhibition of cell growth incubated for 24 hrs measured under normoxia conditions by MTT assay; type: functional, cell-based; conditions: HT-29, 24 h
A549 [7] = test: Cytotoxicity against human A549 cells assessed as inhibition of cell growth incubated for 24 hrs measured under hypoxia conditions by MTT assay; type: functional, cell-based; conditions: A549, 24 h
A549 [8] = test: Induction of ferroptosis in human A549 cells assessed as increase in lipid peroxidation by measuring increase in green fluorescence of the oxidized state measured upon irradiation by BODIPY 581/591C11 probe based confocal imaging analysis; type: functional, cell-based
4T1 = test: Cytotoxicity against mouse 4T1 cells assessed as inhibition of cell growth incubated for 24 hrs measured under normoxia conditions by MTT assay; type: functional, cell-based; conditions: 4T1, 24 h
[9] = Toxicity against mouse xenografted with human A549 cells assessed as changes in body weight administered intratumorally followed by exposure to light on day 0 and 7 and measured for 15 days; conditions: in vivo, other, 360 h, route it(Intratumoral), time 15 day
A549 [10] = test: Induction of apoptosis in human A549 cells assessed as late apoptotic cells measured under dark conditions by AnnexinV-FITC/PI staining based flow cytometric analysis (reference value: 0.17%); type: functional
[11] = Photosensitizing ability of the compound assessed as superoxide radical production measured upon irradiation by DHE probe based assay; type: functional
[12] = Toxicity against mouse xenografted with human A549 cells assessed as changes in biochemical indicators administered intratumorally followed by exposure to light on day 0 and 7 and measured on day 15; conditions: in vivo, other, 360 h, route it(Intratumoral), time 15 day
[13] = Photosensitizing ability of the compound assessed as hydroxyl radical production measured upon irradiation by electron spin resonance analysis; type: functional
A549 [14] = test: Induction of autophagy in human A549 cells assessed as increase in active membrane bound form, […] expression measured upon light irradiation by western blot analysis relative to control; type: functional
[15] = Photosensitizing ability of the compound assessed as hydroxyl radical production upon irradiation by HPF probe based assay relative to control; type: functional
[16] = Phototoxicity against human A549 cells assessed as inhibition of cell growth incubated for 24 hrs measured under normoxia conditions and after one-photon excitation upon irradiation with light at 520 nm, 200 mW/cm2 for 10 mins by MTT assay; type: functional, cell-based; conditions: A549, light or radiation study
A549 [17] = test: Induction of ferroptosis in human A549 cells assessed as increase in lipid peroxidation by measuring increase in green-to-red fluorescence ratio measured upon irradiation by BODIPY 581/591C11 probe based confocal imaging analysis relative to control; type: functional
A549 [18] = test: Photosensitizing ability of the compound in human A549 cells assessed as increase in intracellular superoxide generation by measuring increase in fluorescence intensity measured upon light irradiation under normoxia conditions by DHE probe based fluorescence analysis relative to FLI in cells without irradiation; type: functional
A549 [19] = test: Induction of ROS generation in human A549 cells assessed as intracellular ROS level measured under normoxia conditions by DCFH-DA staining based fluorescence analysis; type: functional, cell-based
A549 [20] = test: Induction of ROS generation in human A549 cells assessed as intracellular superoxide level measured under normoxia conditions by DHE probe based fluorescence analysis; type: functional, cell-based
A549 [21] = test: Induction of apoptosis in human A549 cells measured upon light irradiation by AnnexinV-FITC/PI staining based flow cytometric analysis relative to RuB; type: functional
A549 [22] = test: Induction of apoptosis in human A549 cells assessed as early apoptotic cells measured under dark conditions by AnnexinV-FITC/PI staining based flow cytometric analysis (reference value: 0.12%); type: functional
[23] = Toxicity against mouse xenografted with human A549 cells assessed as changes in hematological indicators administered intratumorally followed by exposure to light on day 0 and 7 and measured on day 15; conditions: in vivo, other, 360 h, route it(Intratumoral), time 15 day
[24] = Phototoxicity against human HT-29 cells assessed as inhibition of cell growth incubated for 24 hrs measured under normoxia conditions and after one-photon excitation upon irradiation with light at 520 nm, 200 mW/cm2 for 10 mins by MTT assay; type: functional, cell-based; conditions: HT-29, light or radiation study
A549 [25] = test: Induction of apoptosis in human A549 cells assessed as viable cells measured under dark conditions by AnnexinV-FITC/PI staining based flow cytometric analysis (reference value: 99.7%); type: functional
[26] = Phototherapeutic index, ratio of IC50 for cytotoxicity against human A549 cells measured under normoxia conditions to IC50 for phototoxicity against human A549 cells measured under normoxia conditions and after one-photon excitation upon irradiation with light at 520 nm, 200 mW/cm2 for 10 mins; type: functional
[27] = Photosensitizing ability of the compound in methanol assessed as time duration of singlet oxygen production measured upon irradiation by DPBF based assay; type: functional
[28] = Photostability of the compound measured after 30 mins of light irradiation by UV absorption based analysis; type: physicochemical; conditions: 0.5 h
[29] = Photosensitizing ability of the compound assessed as superoxide radical production upon irradiation by DHE probe based assay relative to KAKQ; type: functional
A549 [30] = test: Photosensitizing ability of the compound in human A549 cells assessed as increase in intracellular superoxide generation by measuring increase in fluorescence intensity measured upon light irradiation under hypoxia conditions by DHE probe based fluorescence analysis; type: functional, cell-based
[31] = Phototherapeutic index, ratio of IC50 for cytotoxicity against human A549 cells measured under hypoxia conditions to IC50 for phototoxicity against human A549 cells measured under hypoxia conditions and after one-photon excitation upon irradiation with light at 520 nm, 200 mW/cm2 for 10 mins; type: functional
A549 [32] = test: Induction of autophagy in human A549 cells assessed as large circular vesicles engulfing small particles measured upon light irradiation by transmission electron microscopy; type: functional, cell-based
[33] = Photosensitizing ability of the compound assessed as singlet oxygen production measured upon irradiation by electron spin resonance analysis; type: functional
[34] = Cytotoxicity against human HFL1 cells assessed as inhibition of cell growth incubated for 24 hrs by MTT assay; type: toxicity, cell-based

For CCn1c2ccc(/C=C/c3cc[n+](C)c4ccccc34)cc2c2cc(N(c3ccccc3)c3ccccc3)ccc21.[I-], which IC50 [1] is on record?
The IC50 was 0.043 µM.

And the “fold change (FC)” value (A549 [2])?
The value was 3.

And the TGI (A549 [3])?
Its TGI is 90.7%.

And the Activity (A549 [4])?
Its Activity is 0.85%.

And the Activity (A549 [5])?
Its Activity is 2.56%.

And the Activity [6]?
The Activity was “Non-toxic”.

And the IC50 (HT-29)?
Its IC50 is 1.48 µM.

And the IC50 (A549 [7])?
Its IC50 is 1.97 µM.

And the Activity (A549 [8])?
The Activity was “Active”.

What about the IC50 (4T1) of the same compound?
The IC50 was 1.08 µM.

And the Activity [9]?
The Activity was “Non-toxic”.

And the Activity (A549 [10])?
The Activity was 30.7%.

What about the Activity [11] of the same compound?
The Activity was “Active”.

And the Activity [12]?
Its Activity is “Non-toxic”.

What about the Activity [13] of the same compound?
Its Activity is “Active”.

What about the “fold change (FC)” value (A549 [14]) of the same compound?
Its value is 2.

And the fold change (FC) [15]?
Its fold change (FC) is 60.

What about the IC50 [16] of the same compound?
The IC50 was 0.027 µM.

And the “fold change (FC)” value (A549 [17])?
The value was 24.

What about the “fold change (FC)” value (A549 [18]) of the same compound?
The value was 4.

What about the Activity (A549 [19]) of the same compound?
The Activity was “inactive”.

What about the Activity (A549 [20]) of the same compound?
Its Activity is “inactive”.

And the “fold change (FC)” value (A549 [21])?
Its value is 14.

And the Activity (A549 [22])?
Its Activity is 18.1%.

What about the Activity [23] of the same compound?
The Activity was “Non-toxic”.

What about the IC50 [24] of the same compound?
Its IC50 is 0.029 µM.

And the Activity (A549 [25])?
The Activity was 50.4%.

What about the “Ratio IC50” value [26] of the same compound?
Its value is 54.

And the TIME [27]?
The TIME was < 0.133 h.

And the Stability [28]?
The Stability was “Stable”.

And the fold change (FC) [29]?
The fold change (FC) was 8.

And the Activity (A549 [30])?
The Activity was “Active”.

And the “Ratio IC50” value [31]?
Its value is 46.

And the Activity (A549 [32])?
The Activity was “Active”.

What about the Activity [33] of the same compound?
The Activity was “Active”.

What about the IC50 at 24 h [34] of the same compound?
Its IC50 at 24 h is 8.91 µM.
